Molecules are shown by their SMILES.

The source of these data is EP1186305A1 (Schering Aktiengesellschaft, priority 2000, dated 2002).

One data set relates to erythrocyte morphology. Description: Influence on erythrocyte morphology in rat blood (damage index). Type of data set: cell-based. Particulars: for Erythrocyte morphology Damage index 2 h: six parts blood to one part test substance, 2 h incubation. As for the experimental part: Six parts by volume was mixed with one part by volume of each test substance. The mixtures were examined with and optical microscope immediately, 1 hour and 2 hours after incubation in terms of a damage index of blood cells.

Data set [1] is described as follows: Viscosity of contrast media formulations (capillary viscosimeter). Format: physicochemical. Particulars: formulations 0.788 (monomer) or 0.394 (dimer) mol/L. As for the experimental part:
(§1) For this purpose contrast media formulation with a molar concentration of […] for monomeric compounds and of […] for dimeric compounds, equivalent to a iodine concentration of 300 mgI/mL or 189 mgBr/mL were prepared at neutral pH. After heat sterilization under standard conditions for 20 min at 120°C changes in pH and free bromine and iodine was measured. The osmolality was measured at 37°C using a Knauer vapor pressure osmometer. Viscosity of contrast media formulations was determined using a Schott capillary viscosimeter which was standardized with water.

Another data set is described as follows: Aqueous solubility. Format: physicochemical.
A further data set concerns male Sprague-Dawley mice. Description: Acute tolerance, approximate LD50 after single intravenous injection.
Data set [2] in a line: Phantom studies with conventional mammography (X-ray absorption of contrast media in agar discs). The settings on record: 10 mm agar discs in 5 cm water phantom, film mammography. As for the experimental part:
The agar pieces were prepared in cell-culture well-plates having a diameter of 24 mm and a final height of 10 mm. After formation of solid agar the agar discs were placed in a water phantom containing 5 cm height of water. Additionally a control agar disc prepared with physiological saline instead of CM volume was added. The whole phantom was imaged with a commercial available mammograph at various energies of 30 kV, 25 and 20 kV and 140 mAs. After exposure the mammographic films were developed according to standard quality guidelines. Later the films were digitized and signal intensities of the agar discs and surrounding water background were measured with a imaging analyzing software.

Data set [3] in a line: Pharmacokinetic profile after intravenous administration of 3H-labelled compound. Particulars: rats. Type of data set: in vivo, male Sprague-Dawley rats. As to the method:
The pharmacokinetic profile of example 4 was examined after intravenous administration of 3H-labelled example 4 to male Sprague-Dawley rats. For this purpose example 4 was labeled with tritium of a chemical concentration of 300 mg / mL and a radioactive concentration of 2.75 MBq/mL. After intravenous injection in the right jugular vein via a catheter at a dose of 600 mg EXAMPLE 4/kg blood samples of 400 µl were collected in plastic tubes at 0.083, 0.25, 0.5, 1, 2, 4, 6, 8 and 24 hours after administration. Plasma samples were obtained after blood sample centrifugation at 250 g for 10 min. After injection, the rats were transferred in metabolic cages allowing the collection of urine and faeces at different intervals. Aliquots of 100 µl of samples with blood or urine were added to 10 ml of scintillation cocktail and the radioactivity was measured by means of a Tricor-2500 TR automatic scintillation spectrometer. Faeces samples were freeze-dried for two days. They were milled and aliquots of 50 or 100 mg were taken, moistened with 1 mL water and digested with Soluene-350® and 1 mL of isopropyl alcohol at 50 °C for 24 hours. Digested faeces samples were bleached and radioactivity was measured as mentioned above. Plasma levels of example 4 and mean cumulative urinary and faecal excretion data were fitted to a two-compartment model. Curve fit and evaluation of kinetic parameters was performed on the TOP-Fit v 2.0β program.

A short description of data set [4]: Osmolality of contrast media formulations (vapor pressure osmometer). Type of data set: physicochemical. As to the method:
as §1

The next data set in a line: in vivo. Particulars: male, mouse, iv.
Where [5] appears, read: i.v. 600 mg/kg, two-compartment model.

Source text for in vivo: (§2) The behavior of the animals and the lethality was monitored for 7 days post injection.
Source text for male Sprague-Dawley mice: as §2

For `CN(CC(O)CO)C(=O)c1c(Br)c(NC(=O)CO)c(Br)c(C(=O)NCC(O)CO)c1Br` (centres unmarked) [Example 4, 2,4,6-tribromo-5-hydroxyacetylamino-N,N'-bis-(2,3-dihydroxypropyl)-N-methylisophthalamide], in the data set with erythrocyte morphology, the “influence on erythrocyte morphology compared to iodinated reference substances” value was “substantially less influence on erythrocyte morphology than the iodinated reference substances” and the “Erythrocyte morphology Damage index 2 h” value is 0.82. Besides, the “Viscosity (37°C)” value in data set [1] came to 3.5 mPa·s. This compound also showed an Aqueous solubility in “Aqueous solubility” of over 400 mgBr/mL. Further, the “increase of the tolerability with respect to the iodinated and brominated reference compounds” value (“increase of the tolerability” below) with male Sprague-Dawley mice was 13 - 23%. In data set [2], the “detectable down to concentrations” value was determined as 1.31 mmol/L and the “detectable down to concentrations, moles equivalent to mg I/mL of Iohexol” value turned out to be 0.5 mg I/mL. For the same compound, in data set [3] (24 h p.i.), the in faeces measured stood at 5.1 % I.D and the “in the urine detected” value worked out at 63.7 % I.D. Besides, the “metabolisation (bile fluid, HPLC-analysis)” value in data set [3] (bile collected via catheter in the bile duct) is reported as “no metabolisation”. For the same compound, in data set [3] (i.v. 600 mg/kg, at 24 h), the cumulative faecal excretion is on record as 5.39 % of injected dose. The cumulative urinary excretion in data set [3] (i.v. 600 mg/kg, at 24 h p.i.) is recorded as 62.8 % of injected dose. Moreover, in data set [3] (setting [5]), the “distribution volume Vc” value was determined as 0.26 L/kg, the “t½ α” value is on record as 11.4 min and the “t½ β” value amounted to 31.2 min. The “Osmolality a) monomer, 0.788 mol/L, 37°C” value in data set [4] is reported as 818 mOsm/kg water.
In the case of `NC(=O)c1c(Br)c(C(=O)NC(CO)C(O)CO)c(Br)c(N(CCO)C(=O)CO)c1Br` (centres unmarked) [Example 14, 2,4,6-tribromo-5-[N-(2-hydroxyethyl)hydroxyacetylamino]-N-(1-hydroxymethyl-2,3-dihydroxypropyl)isophthalamide], in the data set on erythrocyte morphology, the “influence on erythrocyte morphology compared to iodinated reference substances” value is on record as “substantially less influence on erythrocyte morphology than the iodinated reference substances” and the “Erythrocyte morphology Damage index 2 h” value is reported as 0.88. Moreover, the “Viscosity (37°C)” value in data set [1] came out at 3.4 mPa·s. This compound yielded an Aqueous solubility in the data set “Aqueous solubility” of over 400 mgBr/mL. For the same compound, the “increase of the tolerability” value in the data set with male Sprague-Dawley mice was 13 - 23%. For the same compound, in data set [4], the “Osmolality a) monomer, 0.788 mol/L, 37°C” value turned out to be 500 mOsm/kg water.
As to `NC(=O)c1c(Br)c(C(=O)NCC(O)CO)c(Br)c(N(CC(O)CO)C(=O)CC(=O)N(CC(O)CO)c2c(Br)c(C(N)=O)c(Br)c(C(=O)NCC(O)CO)c2Br)c1Br` (centres unmarked) [Example 25, N,N'-bis-[2,4,6-tribromo-5-carbamoyl-3-[N-(2,3-dihydroxypropyl)carbamoyl]phenyl]-N,N'-bis-(2,3-dihydroxypropyl)-malonamide], in the data set on erythrocyte morphology, the “influence on erythrocyte morphology compared to iodinated reference substances” value is given as “substantially less influence on erythrocyte morphology than the iodinated reference substances” and the “Erythrocyte morphology Damage index 2 h” value is reported as 0.45. Besides, the “Viscosity (37°C)” value in data set [1] is recorded as 5.5 mPa·s. In the data set “Aqueous solubility”, the Aqueous solubility amounted to 400 mgBr/mL. Also, the “increase of the tolerability” value in the data set on male Sprague-Dawley mice is 13 - 23%. Besides, the “Osmolality b) dimer, 0.394 mol/L, 37° C” value in data set [4] turned out to be 320 mOsm/kg water.
Take `CN(C(=O)CC(=O)N(C)c1c(Br)c(C(=O)NC(CO)C(O)CO)c(Br)c(C(=O)NC(CO)C(O)CO)c1Br)c1c(Br)c(C(=O)NC(CO)C(O)CO)c(Br)c(C(=O)NC(CO)C(O)CO)c1Br` (centres unmarked) [Example 26, N,N'-bis-[2,4,6-tribromo-3,5-bis-[N-(1-hydroxymethyl-2,3-dihydroxypropyl)carbamoyl]phenyl]-N,N'-dimethylmalonamide]: in the data set on erythrocyte morphology, the “influence on erythrocyte morphology compared to iodinated reference substances” value is reported as “substantially less influence on erythrocyte morphology than the iodinated reference substances” and the “Erythrocyte morphology Damage index 2 h” value is 0.51. The “Viscosity (37°C)” value in data set [1] amounted to 6.3 mPa·s. Besides, in “Aqueous solubility”, the Aqueous solubility was determined as 400 mgBr/mL. Besides, the “increase of the tolerability” value in the data set on male Sprague-Dawley mice is reported as 13 - 23%. Besides, the “Osmolality b) dimer, 0.394 mol/L, 37° C” value in data set [4] was determined as 370 mOsm/kg water.
In the case of `CC(=O)N(CC(O)CO)c1c(I)c(C(=O)NCC(O)CO)c(I)c(C(=O)NCC(O)CO)c1I` (centres unmarked) [Iohexol, 5-[N-(2,3-dihydroxypropyl)acetylamino]-2,4,6-triiodo-N,N'-bis-(2,3-dihydroxypropyl)isoph-thalamide, reference compound], the “Erythrocyte morphology Damage index 2 h” value in the data set with erythrocyte morphology was 1.31.
One may read the LD50 as the dose expected to kill half of the subjects tested. Regarding `CN(C(=O)CC(=O)N(C)c1c(I)c(C(=O)NC(CO)C(O)CO)c(I)c(C(=O)NC(CO)C(O)CO)c1I)c1c(I)c(C(=O)NC(CO)C(O)CO)c(I)c(C(=O)NC(CO)C(O)CO)c1I` (centres unmarked) [Iotrolan, N,N'-bis-[2,4,6-triiodo-3,5-bis-[N-(1-hydroxymethyl-2,3-dihydroxypropyl)carbamoyl]phenyl]-N,N'-dimethylmalonamide, reference compound], in “in vivo” (Sprague-Dawley), the LD50 at 7 days was found to be 63000 µmol/kg. Further, in the data set with erythrocyte morphology, the “Erythrocyte morphology Damage index 2 h” value was 0.69. Besides, in data set [1], the “Viscosity (37°C)” value is on record as 8.5 mPa·s. The same compound had an Aqueous solubility in “Aqueous solubility” of over 400 mgBr/mL. Moreover, in data set [4], the “Osmolality b) dimer, 0.394 mol/L, 37° C” value is reported as 320 mOsm/kg water.
On to `CC(=O)N(CC(O)CO)c1c(Br)c(C(=O)NCC(O)CO)c(Br)c(C(=O)NCC(O)CO)c1Br` (centres unmarked) [reference compound], for which the 50% lethal dose (LD50) at 7 days in the data set “in vivo” was about 59000 µmol/kg. Further, in data set [1], the “Viscosity (37°C)” value is 4.6 mPa·s. This compound also registered an Aqueous solubility in “Aqueous solubility” of over 300 mgBr/mL. The “Osmolality a) monomer, 0.788 mol/L, 37°C” value in data set [4] worked out at 908 mOsm/kg water.
